The target in one data set is Prp8 intein (Cryptococcus gattii, UniProt E6R027). The experiment in a line: Split Renilla luciferase RLuc-Prp8 intein splicing assay. Format: biochemical. Particulars: compound at 20 μM.
A further data set has as its system trypsin. The experiment in a line: Trypsin protease inhibition (Abz FRET substrate). Format: biochemical. Particulars: compound at 400 μM. The method, then: Trypsin and papain protease inhibition—An Abz FRET substrate (Abz-RRRRSAG-nTyr) developed previously (Li et al., “Existing Drugs as Broad-Spectrum and Potent Inhibitors for Zika Virus by Targeting NS2B-NS3 Interaction,” Cell Research 27(8):1046-1064 (2017), which is hereby incorporated by reference in its entirety) was used as the substrate for inhibition of trypsin and papain proteases. In black and clear-bottom 96-well plates, 1 μg trypsin (Sigma-Aldrich) was incubated with DMF or compounds at 400 μM at 25° C. for 30 min in a 70 μl reaction buffer containing 20 mM Tris, pH 8.0, 100 mM NaCl, 5% Glycerol, and 0.05% CHAPS. For papain, 1 μg Papain (Sigma-Aldrich) was incubated with compounds at 400 μM at 25° C. for 30 min in a 70 μl reaction buffer composed of 1.1 mM EDTA, 0.067 mM β-mercaptoethanol, 5.5 mM cysteine. […]

A short description of a further data set: in vitro. Particulars: human, CC50 A549. Format: cell-based, human. The gist of the method:
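A549 cells (5×10^3 per well) were exposed to compounds at 37 °C for 48 h, and viability was read by MTT assay; N=3.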

The next data set relates to C. neoformans strain H99. The experiment in a line: Minimum fungicidal concentration (MFC) determination. Type of data set: cell-based. Particulars: Cryptococcus neoformans. Here is the method:
[…] cells (100 ul of 0.5×10^5/ml) in log phase were added to each well. […] Then, the cultured cells in selected wells were first suspended by gentle pipetting. 50 μl of the cell culture suspension from each well was plated onto the Sabouraud dextrose agar (SDA) plates and further incubated for 48 h. MFC is defined as the minimum concentration where there is no growth after plating to the SDA plates. […] To determine minimum fungicidal concentration (MFC), the cultured cells in selected wells were first suspended by gentle pipetting. Then 50 ul of the cell culture suspension from each well was plated onto the Sabouraud dextrose agar (SDA) plates and further incubated for 48 h. MFC is defined as the minimum fungicidal concentration where there is no growth after plating on the SDA plates.

Data set [1] deals with C1A/H62A/D95A/H169A (AAAA) Prp8 intein mutant. Briefly: Surface plasmon resonance (SPR), AAAA mutant. Format: binding, Cryptococcus gattii.
Method: The Prp8 intein and mutants were immobilized onto a ProteOn™ GLH sensor chip (2,500-7,000 RU) (Bio-Rad). A 3-fold dilution series of compounds was injected as the analytes. A blank surface blocked by ethanolamine was used as the control surface. The experiment was carried out at a flow rate of 100 μl/min using a PBSTD buffer containing 1×PBS, 0.005% surfactant P20, and 5% DMSO. Association (ka) and dissociation (kd) rates, as well as the dissociation constant (KD), were obtained by global fitting of the SPR data from multiple concentrations to a simple 1:1 Langmuir binding model, using the ProteOn Manager software suite (Bio-Rad).
In data set [2] the test system is C. neoformans H99 strain transformed with empty vector, WT Prp8 or AAAA mutant. The experiment in a line: Resistance study, MIC in H99 overexpressing Prp8 intein. Format: cell-based, Cryptococcus neoformans. Here is the method:
For resistance studies, C. neoformans H99 strain transformed with an empty pXL1-PTEF1 vector, the Prp8-pXL1-PTEF1 (WT Prp8) construct, or the AAAA mutant were used, as described. Li et al., “Cisplatin Protects Mice From Challenge of Cryptococcus Neoformans by Targeting the Prp8 Intein,” Emerging Microbes & Infections 8(1):895-908 (2019), which is hereby incorporated by reference in its entirety. MICs for selected compounds were determined for these transformed cells as described above.

Data set [3] in a line: In vivo toxicity studies in adult BALB/c mice. Here is the method: Mouse 1: Oral, VC—125 ul of formulation without drug is given per mouse by oral gavage
Mouse 3: IP, VC—60 ul of the formulation without the drug is injected intraperitoneally
A total of 5 doses were given (one/day). Weight, posture, movement, activity, paralysis, seizure, and fur nature were monitored in the morning and evening.

Values after ≈ are worked out from the molar mass of the structure shown. Values joined by “and” are separate entries in the source; they are usually repeats but may differ in a detail not shown here. Equal entries are not always repeated.

The term CC50 denotes the concentration that lowers cell viability or growth by half. Read a high CC50 as better tolerance by the cells. For orientation: MFC means the lowest tested concentration that kills the fungus rather than only halting it. A higher MFC goes with weaker fungicidal potency.

Sequence of Prp8 intein (E6R027 entry or part of it): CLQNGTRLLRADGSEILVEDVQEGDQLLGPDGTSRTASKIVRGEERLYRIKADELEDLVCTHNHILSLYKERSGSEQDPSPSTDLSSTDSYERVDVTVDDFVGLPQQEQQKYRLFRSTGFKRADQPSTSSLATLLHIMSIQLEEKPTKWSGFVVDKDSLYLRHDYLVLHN

Take `O=C(Nc1ccc(F)cc1)c1nnsc1S(=O)(=O)c1ccc(Cl)cc1` [6G-318S, 5-[(4-chlorophenyl)sulfonyl]-N-(4-fluorophenyl)-1,2,3-thiadiazole-4-carboxamide]: at Prp8 intein, the “suppression of RLuc-Prp8 intein splicing activity” value is “greater than 50%”. In the data set on trypsin, the “inhibition of trypsin protease activity” value is “neither 6G-318S, 6G-319S, nor cisplatin significantly inhibited”. Moreover, the CC50 at 48 h in “in vitro” is 13.9 µg/mL and ~35 µM. The compound further registered an MFC in the data set on C. neoformans strain H99 of 1.25 µg/mL (≈ 3.14 µM). Also, the “KD AAAA” value in data set [1] is “completely lost binding affinity”. Further, the “MIC with empty vector or AAAA mutant Prp8 intein-transformed H99 cells” value in data set [2] is given as “identical MIC values”. Further, the “increase of MIC in H99 transformed with WT Prp8 intein” value in data set [2] (compared to H99 with empty vector or AAAA mutant) is 4 fold. Besides, the “observed condition of mouse” value in data set [3] (50 mg/kg intraperitoneally) is “died on day 2”. In addition, the “dose with no observed toxicity / safe dose, oral” value in data set [3] (mouse, in vivo, po, 5 days) worked out at 200 mg/kg.

(Values after patent publication US20230233533A1, “COMPOSITIONS, METHODS OF TREATING AND PREVENTING FUNGAL INFECTIONS, AND METHODS OF INHIBITING PRP8 INTEIN EXPRESSION” (Health Research, Inc., priority 2020, published 2023).)
